{"source": "patent US9452130B2", "about": "“Pharmaceutical composition for preparing drug delivery nano/micro bubbles” (priority 2014, dated 2016)", "key": {"cells": {"system": "cells", "experiment": "Cell images of cells co-cultured with the components of the nano/micro bubbles (FITC-insulin transmission)", "assay_type": "cell-based", "details": "cells co-cultured with the component; stained with Cld 4, E-cadherin, DAPI; FIG. 3"}, "diabetic rats": {"system": "diabetic rats", "experiment": "Blood glucose change in diabetic rats after oral or subcutaneous administration", "assay_type": "in vivo, male Wistar rats", "details": "subcutaneous injection, 5 IU/kg, 0 to 10 hours; FIG. 5", "description": "Animal experimental procedures were performed based on the management and use of laboratory animals guidelines promulgated by the Council of Agriculture. About 300 to 350 grams of male rats (male Wistar rats) were used. The animal experiments were performed to investigate the treatment of diabetic rats using insulin-embedded carrier system by oral administration of drugs. During experiment, the rats were administrated by oral (30 IU/Kg) and subcutaneous (5 IU/Kg) administration after the rats were fixed. At different times, the animals were placed in the blood-drawing fixation frame to expose the tail, and then the tails were disinfected with iodine to prevent bacterial infection. […] Meanwhile, pharmacokinetics was measured using enzyme immunoassay. In the present example, groups comprising nano/micro bubbles of the present invention (containing 30 IU/kg of insulin), oral administration (30 IU/kg of insulin) and subcutaneous injection of insulin (5 IU/kg) are compared. The change rates in plasma insulin and blood glucose concentration from 0 to 10 hours after subjects taking insulin or injected with insulin were recorded respectively, and the results are illustrated in FIGS. 5a and 5b."}}, "data": [{"compound": "O=C(O)CN(CCN1CC(=O)OC(=O)C1)CCN1CC(=O)OC(=O)C1", "note": "[DTPA dianhydride, diethylenetriaminepentaacetic dianhydride]", "values": [{"measurement": "transmission of FITC-insulin (pathway)", "setting": "cells", "result": "can promote transmission of FITC-insulin via paracellular pathway"}]}, {"compound": "CCCCCCCCCCCCOS(=O)(=O)[O-].[Na+]", "note": "[SDS]", "values": [{"measurement": "transmission of FITC-insulin (pathway)", "setting": "cells", "result": "can promote transmission of FITC-insulin via both of paracellular pathway and transcellular pathway"}]}, {"compound": "insulin", "values": [{"measurement": "change rate of the blood glucose", "setting": "diabetic rats", "result": "rapidly declined and rose again"}]}]}
